Experiments:
Assay type in all cases: cell-based
[1] = tested on: Enterobacter cloacae; experiment: MIC against Gram-negative bacteria: Enterobacter cloacae
Outline: (§1)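 LB broth cultures at McFarland 0.5, spun down, resuspended, diluted to 5×10^5 CFU/mL final. Two-fold serial dilutions of purified human EGF domain proteins, triplicate. 37° C, 175 rpm shaking. Endpoint: no visible growth.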

[2] = tested on: Proteus vulgaris; experiment: MIC against Gram-negative bacteria: Proteus vulgaris
Outline: as §1

[3] = tested on: Serratia marcescens; experiment: MIC against Gram-negative bacteria: Serratia marcescens
Outline: as §1

[4] = tested on: E. coli BL21; experiment: MIC against Gram-negative bacteria: E. coli BL21; conditions: for MIC / MIC (μg/mL) E. coli BL21: E. coli BL21
Outline: as §1

[5] = tested on: Pseudomonas aeruginosa; experiment: MIC against Gram-negative bacteria: Pseudomonas aeruginosa
Outline: as §1

[6] = tested on: Aeromonas hydrophila; experiment: MIC against Gram-negative bacteria: Aeromonas hydrophila
Outline: as §1

[7] = tested on: E. coli DH5α; experiment: Antibacterial activity: MIC and growth curve against E. coli DH5α in 96-well plate; conditions: minimal inhibitory concentration against E. coli DH5α; 96-well plate, 5×10^5 CFU/mL, 37° C., judged after 8 h
Outline: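 Log-phase bacteria (OD600 ~0.5) resuspended in LB at 5×10^5 CFU/mL, exposed to recombinant protein at 50, 25, 12.5 μg/mL final in triplicate, 37 °C shaking at 175 rpm. OD600 read every 30 min; MIC is lowest concentration showing no growth.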

[8] = tested on: Moraxella catarrhalis; experiment: MIC against Gram-negative bacteria: Moraxella catarrhalis
Outline: as §1

[9] = tested on: Proteus mirabilis; experiment: MIC against Gram-negative bacteria: Proteus mirabilis
Outline: as §1

[10] = tested on: Klebsiella pneumonia; experiment: MIC against Gram-negative bacteria: Klebsiella pneumonia
Outline: as §1

[11] = tested on: Citrobacter diversus; experiment: MIC against Gram-negative bacteria: Citrobacter diversus
Outline: as §1

[12] = 10 h cultivation at 37° C., 5×10^5 CFU/mL, two-fold serial dilution
[13] = 96-well plate, 5×10^5 CFU/mL, 37° C., 10 h
[14] = E. cloacae, 10 h cultivation at 37° C., 5×10^5 CFU/mL
[15] = P. vulgaris, 10 h cultivation at 37° C., 5×10^5 CFU/mL
[16] = S. marcescens, 10 h cultivation at 37° C., 5×10^5 CFU/mL
[17] = 10 h cultivation at 37° C., 5×10^5 CFU/mL
[18] = P. aeruginosa, 10 h cultivation at 37° C., 5×10^5 CFU/mL
[19] = A. hydrophila, 10 h cultivation at 37° C., 5×10^5 CFU/mL
[20] = M. catarrhalis, 10 h cultivation at 37° C., 5×10^5 CFU/mL
[21] = P. mirabilis, 10 h cultivation at 37° C., 5×10^5 CFU/mL
[22] = K. pneumonia, 10 h cultivation at 37° C., 5×10^5 CFU/mL
[23] = C. diversus, 10 h cultivation at 37° C., 5×10^5 CFU/mL
[24] = Enterobacter cloacae, 96-well plate, 5×10^5 CFU/mL, 37° C., 10 h
[25] = Proteus vulgaris, 96-well plate, 5×10^5 CFU/mL, 37° C., 10 h
[26] = Serratia marcescens, 96-well plate, 5×10^5 CFU/mL, 37° C., 10 h
[27] = Pseudomonas aeruginosa, 96-well plate, 5×10^5 CFU/mL, 37° C., 10 h
[28] = Aeromonas hydrophila, 96-well plate, 5×10^5 CFU/mL, 37° C., 10 h
[29] = Moraxella catarrhalis, 96-well plate, 5×10^5 CFU/mL, 37° C., 10 h
[30] = Proteus mirabilis, 96-well plate, 5×10^5 CFU/mL, 37° C., 10 h
[31] = Klebsiella pneumonia, 96-well plate, 5×10^5 CFU/mL, 37° C., 10 h
[32] = Citrobacter diversus, 96-well plate, 5×10^5 CFU/mL, 37° C., 10 h
[33] = E. cloacae, 10 h cultivation at 37° C.
[34] = P. vulgaris, 10 h cultivation at 37° C.
[35] = S. marcescens, 10 h cultivation at 37° C.
[36] = P. aeruginosa, 10 h cultivation at 37° C.
[37] = A. hydrophila, 10 h cultivation at 37° C.
[38] = M. catarrhalis, 10 h cultivation at 37° C.
[39] = P. mirabilis, 10 h cultivation at 37° C.
[40] = K. pneumonia, 10 h cultivation at 37° C.
[41] = C. diversus, 10 h cultivation at 37° C.

PRT1102 (TIGSCGKNSCQHGGICHQDPIYPVCICPAGYAGRFCE; listed as Homo sapiens)
MIC E. cloacae [1, 12]: 12.5 µg/mL | MIC P. vulgaris [2, 12]: 12.5 µg/mL | MIC S. marcescens [3, 12]: 25 µg/mL | MIC E. coli BL21 [4, 12]: 12.5 µg/mL | MIC P. aeruginosa [5, 12]: 12.5 µg/mL | MIC A. hydrophila [6, 12]: 12.5 µg/mL | MIC [7]: 12.5 µg/mL | MIC M. catarrhalis [8, 12]: 12.5 µg/mL | MIC P. mirabilis [9, 12]: 12.5 µg/mL | MIC K. pneumonia [10, 12]: 12.5 µg/mL | MIC C. diversus [11, 12]: 12.5 µg/mL

PRT1067 (KLTSCATNASICGDEARCVRTEKAAYCACRSGFHTVPGQPGCQ; listed as Homo sapiens)
MIC E. cloacae [1, 12]: 25 µg/mL | MIC P. vulgaris [2, 12]: 50 µg/mL | MIC S. marcescens [3, 12]: 25 µg/mL | MIC E. coli BL21 [4, 12]: 50 µg/mL | MIC P. aeruginosa [5, 12]: 25 µg/mL | MIC A. hydrophila [6, 12]: 25 µg/mL | MIC [7]: 25 µg/mL | MIC M. catarrhalis [8, 12]: 12.5 µg/mL | MIC P. mirabilis [9, 12]: 25 µg/mL | MIC K. pneumonia [10, 12]: 12.5 µg/mL | MIC C. diversus [11, 12]: 25 µg/mL

PRT538 (CPCPLPHLANFAESCYRKNGAVRCICNENYAGPNCERCAPGYYGNPLLIGSTCKK; listed as Homo sapiens)
MIC against E. cloacae [1, 13]: 25 µg/mL | MIC against P. vulgaris [2, 13]: 12.5 µg/mL | MIC against S. marcescens [3, 13]: 50 µg/mL | MIC against E. coli BL21 [4, 13]: 12.5 µg/mL | MIC against P. aeruginosa [5, 13]: 25 µg/mL | MIC against A. hydrophila [6, 13]: 12.5 µg/mL | MIC [7]: 25 µg/mL | MIC against M. catarrhalis [8, 13]: 12.5 µg/mL | MIC against P. mirabilis [9, 13]: 12.5 µg/mL | MIC against K. pneumonia [10, 13]: 12.5 µg/mL | MIC against C. diversus [11, 13]: 25 µg/mL

PRT663 (DVNECDDLNGPAVLCVHGYCENTEGSYRCHCSPGYVAEAGPPHCT; listed as Homo sapiens)
MIC E. cloacae [1, 13]: 12.5 µg/mL | MIC P. vulgaris [2, 13]: 50 µg/mL | MIC S. marcescens [3, 13]: 12.5 µg/mL | MIC E. coli BL21 [4, 13]: 25 µg/mL | MIC P. aeruginosa [5, 13]: 50 µg/mL | MIC A. hydrophila [6, 13]: 25 µg/mL | MIC [7]: 100 µg/mL | MIC M. catarrhalis [8, 13]: 12.5 µg/mL | MIC P. mirabilis [9, 13]: 25 µg/mL | MIC K. pneumonia [10, 13]: 25 µg/mL | MIC C. diversus [11, 13]: 50 µg/mL

PRT426 (DINECTSLSEPCRPGFSCINTVGSYTCQRNPLICARGYHASDDGTKCV; listed as Homo sapiens)
MIC [1, 14]: 50 µg/mL | MIC [2, 15]: 25 µg/mL | MIC [3, 16]: 50 µg/mL | MIC [4, 17]: 50 µg/mL | MIC [5, 18]: 50 µg/mL | MIC [6, 19]: 12.5 µg/mL | MIC [7]: 12.5 µg/mL | MIC [8, 20]: 12.5 µg/mL | MIC [9, 21]: 12.5 µg/mL | MIC [10, 22]: 50 µg/mL | MIC [11, 23]: 12.5 µg/mL

PRT27 (NACASGPCPPHADCRDLWQTFSCTCQPGYYGPGCV; listed as Homo sapiens)
MIC (μg/mL) E. cloacae [1, 24]: 12.5 µg/mL | MIC (μg/mL) P. vulgaris [2, 25]: 50 µg/mL | MIC (μg/mL) S. marcescens [3, 26]: 100 µg/mL | MIC (μg/mL) E. coli BL21 [4, 13]: 25 µg/mL | MIC (μg/mL) P. aeruginosa [5, 27]: 50 µg/mL | MIC (μg/mL) A. hydrophila [6, 28]: 25 µg/mL | MIC [7]: 12.5 µg/mL | MIC (μg/mL) M. catarrhalis [8, 29]: 12.5 µg/mL | MIC (μg/mL) P. mirabilis [9, 30]: 25 µg/mL | MIC (μg/mL) K. pneumonia [10, 31]: 25 µg/mL | MIC (μg/mL) C. diversus [11, 32]: 50 µg/mL

PRT152 (LPCPGGTERPCGGYGQCEGEGTRGGSGHCDCQAGYGGEACG; listed as Homo sapiens)
MIC (μg/mL) E. cloacae [1, 14]: 12.5 µg/mL | MIC (μg/mL) P. vulgaris [2, 15]: 12.5 µg/mL | MIC (μg/mL) S. marcescens [3, 16]: 12.5 µg/mL | MIC (μg/mL) E. coli BL21 [4, 17]: 12.5 µg/mL | MIC (μg/mL) P. aeruginosa [5, 18]: 12.5 µg/mL | MIC (μg/mL) A. hydrophila [6, 19]: 12.5 µg/mL | MIC [7]: 12.5 µg/mL | MIC (μg/mL) M. catarrhalis [8, 20]: 12.5 µg/mL | MIC (μg/mL) P. mirabilis [9, 21]: 25 µg/mL | MIC (μg/mL) K. pneumonia [10, 22]: 12.5 µg/mL | MIC (μg/mL) C. diversus [11, 23]: 25 µg/mL

PRT894 (NLDDCASSPCDSGTCLDKIDGYECACEPGYTGSMCN; listed as Homo sapiens)
MIC [1, 33]: 12.5 µg/mL | MIC [2, 34]: 50 µg/mL | MIC [3, 35]: 12.5 µg/mL | MIC ([4]; 10 h cultivation at 37° C.): 50 µg/mL | MIC [5, 36]: 12.5 µg/mL | MIC [6, 37]: 50 µg/mL | MIC [7]: 12.5 µg/mL | MIC [8, 38]: 50 µg/mL | MIC [9, 39]: 12.5 µg/mL | MIC [10, 40]: 50 µg/mL | MIC [11, 41]: 12.5 µg/mL

PRT1097 (NIDECFSNPCIHGNCSDRVAAYHCTCEPGYTGVNCE; listed as Homo sapiens)
MIC E. cloacae [1, 12]: 25 µg/mL | MIC P. vulgaris [2, 12]: 12.5 µg/mL | MIC S. marcescens [3, 12]: 25 µg/mL | MIC E. coli BL21 [4, 12]: 12.5 µg/mL | MIC P. aeruginosa [5, 12]: 25 µg/mL | MIC A. hydrophila [6, 12]: 12.5 µg/mL | MIC [7]: 25 µg/mL | MIC M. catarrhalis [8, 12]: 100 µg/mL | MIC P. mirabilis [9, 12]: 25 µg/mL | MIC K. pneumonia [10, 12]: 12.5 µg/mL | MIC C. diversus [11, 12]: 25 µg/mL

PRT121 (CGPCFNNGVPILEGTSCRCQCRLGSLGAACE; listed as Homo sapiens)
MIC (μg/mL) E. cloacae [1, 24]: 50 µg/mL | MIC (μg/mL) P. vulgaris [2, 25]: 50 µg/mL | MIC (μg/mL) S. marcescens [3, 26]: 25 µg/mL | MIC (μg/mL) E. coli BL21 [4, 13]: 12.5 µg/mL | MIC (μg/mL) P. aeruginosa [5, 27]: 25 µg/mL | MIC (μg/mL) A. hydrophila [6, 28]: 12.5 µg/mL | MIC [7]: 25 µg/mL | MIC (μg/mL) M. catarrhalis [8, 29]: 12.5 µg/mL | MIC (μg/mL) P. mirabilis [9, 30]: 25 µg/mL | MIC (μg/mL) K. pneumonia [10, 31]: 12.5 µg/mL | MIC (μg/mL) C. diversus [11, 32]: 50 µg/mL

PRT895 (NIDECAGNPCHNGGTCEDGINGFTCRCPEGYHDPTCL; listed as Homo sapiens)
MIC [1, 33]: 12.5 µg/mL | MIC [2, 34]: 25 µg/mL | MIC [3, 35]: 25 µg/mL | MIC ([4]; 10 h cultivation at 37° C.): 25 µg/mL | MIC [5, 36]: 12.5 µg/mL | MIC [6, 37]: 50 µg/mL | MIC [7]: 50 µg/mL | MIC [8, 38]: 50 µg/mL | MIC [9, 39]: 12.5 µg/mL | MIC [10, 40]: 50 µg/mL | MIC [11, 41]: 12.5 µg/mL
